From ChEMBL document CHEMBL5723582, “Data for DCP probe T-10430” (2024)

Experiments:
[1] = target: G-protein coupled receptor 6 (Homo sapiens) (UniProt P46095); experiment: RLU of GPR6 at 1.0 µM in the […] PRESTO-Tango GPCRome screen; details: Compound concentration 1.0 uM
[2] = target: Probable G-protein coupled receptor 85 (Homo sapiens) (UniProt P60893); experiment: RLU of GPR85 at 1.0 µM in the […] PRESTO-Tango GPCRome screen; details: Compound concentration 1.0 uM
[3] = target: Platelet-activating factor receptor (Homo sapiens) (UniProt P25105); experiment: RLU of PTAFR at 1.0 µM in the […] PRESTO-Tango GPCRome screen; details: Compound concentration 1.0 uM
[4] = target: Mas-related G-protein coupled receptor member F (Homo sapiens) (UniProt Q96AM1); experiment: RLU of MRGPRF at 1.0 µM in the […] PRESTO-Tango GPCRome screen; details: Compound concentration 1.0 uM
[5] = target: Type-1 angiotensin II receptor (Homo sapiens, UniProt P30556); experiment: IP-One assay (AGTR1), antagonist mode at up to 50 µM ( vs. 10 nM Val5-Angiotensin II); type: functional; set-up: compound concentration < 50 uM
[6] = target: Melanocyte-stimulating hormone receptor (Homo sapiens) (UniProt Q01726); experiment: RLU of MC1R at 1.0 µM in the […] PRESTO-Tango GPCRome screen; details: Compound concentration 1.0 uM
[7] = target: fMet-Leu-Phe receptor (Homo sapiens) (UniProt P21462); experiment: RLU of FPR1 at 1.0 µM in the […] PRESTO-Tango GPCRome screen; details: Compound concentration 1.0 uM
[8] = target: G-protein coupled receptor 161 (Homo sapiens) (UniProt Q8N6U8); experiment: RLU of GPR161 at 1.0 µM in the […] PRESTO-Tango GPCRome screen; details: Compound concentration 1.0 uM
[9] = target: Lutropin-choriogonadotropic hormone receptor (Homo sapiens) (UniProt P22888); experiment: RLU of LHCGR at 1.0 µM in the […] PRESTO-Tango GPCRome screen; details: Compound concentration 1.0 uM
[10] = target: Glucagon receptor (Homo sapiens) (UniProt P47871); experiment: RLU of GCGR at 1.0 µM in the […] PRESTO-Tango GPCRome screen; details: Compound concentration 1.0 uM
[11] = target: B2 bradykinin receptor (Homo sapiens) (UniProt P30411); experiment: RLU of BDKRB2 at 1.0 µM in the […] PRESTO-Tango GPCRome screen; details: Compound concentration 1.0 uM
[12] = target: Substance-P receptor (Homo sapiens) (UniProt P25103); experiment: RLU of TACR1 at 1.0 µM in the […] PRESTO-Tango GPCRome screen; details: Compound concentration 1.0 uM
[13] = target: Probable G-protein coupled receptor 162 (Homo sapiens) (UniProt Q16538); experiment: RLU of GPR162 at 1.0 µM in the […] PRESTO-Tango GPCRome screen; details: Compound concentration 1.0 uM
[14] = target: Chemerin-like receptor 2 (Homo sapiens) (UniProt P46091); experiment: RLU of GPR1 at 1.0 µM in the […] PRESTO-Tango GPCRome screen; details: Compound concentration 1.0 uM
[15] = target: G-protein coupled receptor 78 (Homo sapiens) (UniProt Q96P69); experiment: RLU of GPR78 at 1.0 µM in the […] PRESTO-Tango GPCRome screen; details: Compound concentration 1.0 uM
[16] = target: Histamine H4 receptor (Homo sapiens) (UniProt Q9H3N8); experiment: RLU of HRH4 at 1.0 µM in the Aequorin PRESTO-Tango GPCRome screen; details: Compound concentration 1.0 uM
[17] = target: Melatonin receptor type 1A (Homo sapiens) (UniProt P48039); experiment: RLU of MTNR1A at 1.0 µM in the […] PRESTO-Tango GPCRome screen; details: Compound concentration 1.0 uM
[18] = target: G-prodeshotein coupled receptor 4 (Homo sapiens) (UniProt P46093); experiment: RLU of GPR4 at 1.0 µM in the […] PRESTO-Tango GPCRome screen; details: Compound concentration 1.0 uM
[19] = target: Melanocortin receptor 4 (Homo sapiens) (UniProt P32245); experiment: RLU of MC4R at 1.0 µM in the […] PRESTO-Tango GPCRome screen; details: Compound concentration 1.0 uM
[20] = target: Melatonin receptor type 1B (Homo sapiens) (UniProt P49286); experiment: RLU of MTNR1B at 1.0 µM in the […] PRESTO-Tango GPCRome screen; details: Compound concentration 1.0 uM
[21] = target: Prostaglandin E2 receptor EP2 subtype (Homo sapiens) (UniProt P43116); experiment: RLU of PTGER2 at 1.0 µM in the […] PRESTO-Tango GPCRome screen; details: Compound concentration 1.0 uM
[22] = target: Alpha-1A adrenergic receptor (Homo sapiens) (UniProt P35348); experiment: RLU of ADRA1A at 1.0 µM in the […] PRESTO-Tango GPCRome screen; details: Compound concentration 1.0 uM
[23] = target: G-protein coupled receptor 22 (Homo sapiens) (UniProt Q99680); experiment: RLU of GPR22 at 1.0 µM in the […] PRESTO-Tango GPCRome screen; details: Compound concentration 1.0 uM
[24] = target: Nociceptin receptor (Homo sapiens) (UniProt P41146); experiment: RLU of OPRL1 at 1.0 µM in the […] PRESTO-Tango GPCRome screen; details: Compound concentration 1.0 uM
[25] = target: Mu-type opioid receptor (Homo sapiens) (UniProt P35372); experiment: RLU of OPRM1 at 1.0 µM in the […] PRESTO-Tango GPCRome screen; details: Compound concentration 1.0 uM
[26] = target: Neuromedin-K receptor (Homo sapiens) (UniProt P29371); experiment: RLU of TACR3 at 1.0 µM in the […] PRESTO-Tango GPCRome screen; details: Compound concentration 1.0 uM
[27] = target: Adhesion G-protein coupled receptor G2 (Homo sapiens) (UniProt Q8IZP9); experiment: RLU of GPR64 at 1.0 µM in the […] PRESTO-Tango GPCRome screen; details: Compound concentration 1.0 uM
[28] = target: P2Y purinoceptor 13 (Homo sapiens) (UniProt Q9BPV8); experiment: RLU of P2RY13 at 1.0 µM in the […] PRESTO-Tango GPCRome screen; details: Compound concentration 1.0 uM
[29] = target: Probable G-protein coupled receptor 174 (Homo sapiens) (UniProt Q9BXC1); experiment: RLU of GPR174 at 1.0 µM in the […] PRESTO-Tango GPCRome screen; details: Compound concentration 1.0 uM
[30] = target: Retinoic acid-induced protein 3 (Homo sapiens) (UniProt Q8NFJ5); experiment: RLU of GPRC5A at 1.0 µM in the […] PRESTO-Tango GPCRome screen; details: Compound concentration 1.0 uM
[31] = target: Proto-oncogene Mas (Homo sapiens) (UniProt P04201); experiment: RLU of MAS1 at 1.0 µM in the […] PRESTO-Tango GPCRome screen; details: Compound concentration 1.0 uM
[32] = target: Adenosine receptor A2b (Homo sapiens) (UniProt P29275); experiment: RLU of ADORA2B at 1.0 µM in the […] PRESTO-Tango GPCRome screen; details: Compound concentration 1.0 uM
[33] = target: C-X-C chemokine receptor type 6 (Homo sapiens) (UniProt O00574); experiment: RLU of CXCR6 at 1.0 µM in the […] PRESTO-Tango GPCRome screen; details: Compound concentration 1.0 uM
[34] = target: Probable G-protein coupled receptor 45 (Homo sapiens) (UniProt Q9Y5Y3); experiment: RLU of GPR45 at 1.0 µM in the […] PRESTO-Tango GPCRome screen; details: Compound concentration 1.0 uM
[35] = target: Growth hormone-releasing hormone receptor (Homo sapiens) (UniProt Q02643); experiment: RLU of GHRHR at 1.0 µM in the […] PRESTO-Tango GPCRome screen; details: Compound concentration 1.0 uM
Sequence of Growth hormone-releasing hormone receptor (Homo sapiens) (Q02643 whole entry): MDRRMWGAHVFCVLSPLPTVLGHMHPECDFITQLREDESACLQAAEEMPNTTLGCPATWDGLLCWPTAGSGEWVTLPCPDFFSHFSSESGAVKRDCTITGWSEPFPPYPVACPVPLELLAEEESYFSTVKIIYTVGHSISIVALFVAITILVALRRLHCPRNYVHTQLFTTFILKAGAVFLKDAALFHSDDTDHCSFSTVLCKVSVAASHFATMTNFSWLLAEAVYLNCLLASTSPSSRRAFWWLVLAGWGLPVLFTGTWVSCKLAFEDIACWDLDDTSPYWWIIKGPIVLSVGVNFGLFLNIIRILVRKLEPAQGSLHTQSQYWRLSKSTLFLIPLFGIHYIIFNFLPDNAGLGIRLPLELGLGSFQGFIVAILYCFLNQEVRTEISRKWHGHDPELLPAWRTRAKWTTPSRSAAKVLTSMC

Sequence of C-X-C chemokine receptor type 6 (Homo sapiens) (O00574 whole entry, looked up): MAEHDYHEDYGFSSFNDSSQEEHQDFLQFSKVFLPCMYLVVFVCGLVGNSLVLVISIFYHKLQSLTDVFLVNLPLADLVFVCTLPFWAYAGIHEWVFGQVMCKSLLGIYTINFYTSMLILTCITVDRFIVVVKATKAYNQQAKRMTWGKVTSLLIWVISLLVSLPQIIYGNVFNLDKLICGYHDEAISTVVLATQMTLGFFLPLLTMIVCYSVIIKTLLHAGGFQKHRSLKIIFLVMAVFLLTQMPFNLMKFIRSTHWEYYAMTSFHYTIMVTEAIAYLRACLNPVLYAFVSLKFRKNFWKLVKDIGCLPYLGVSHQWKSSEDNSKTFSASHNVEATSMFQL
Sequence of Probable G-protein coupled receptor 45 (Homo sapiens) (Q9Y5Y3 whole entry): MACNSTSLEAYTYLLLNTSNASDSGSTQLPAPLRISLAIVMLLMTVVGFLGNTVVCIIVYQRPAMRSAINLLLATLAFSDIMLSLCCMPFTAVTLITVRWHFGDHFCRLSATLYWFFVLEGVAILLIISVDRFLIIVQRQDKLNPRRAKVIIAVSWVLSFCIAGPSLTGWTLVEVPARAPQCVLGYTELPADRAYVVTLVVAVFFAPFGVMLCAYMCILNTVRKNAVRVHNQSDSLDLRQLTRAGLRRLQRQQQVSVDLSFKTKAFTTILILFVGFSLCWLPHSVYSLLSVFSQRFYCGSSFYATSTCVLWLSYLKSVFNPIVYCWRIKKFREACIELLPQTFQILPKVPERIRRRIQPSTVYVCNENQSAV
Sequence of Adenosine receptor A2b (Homo sapiens) (P29275 whole entry): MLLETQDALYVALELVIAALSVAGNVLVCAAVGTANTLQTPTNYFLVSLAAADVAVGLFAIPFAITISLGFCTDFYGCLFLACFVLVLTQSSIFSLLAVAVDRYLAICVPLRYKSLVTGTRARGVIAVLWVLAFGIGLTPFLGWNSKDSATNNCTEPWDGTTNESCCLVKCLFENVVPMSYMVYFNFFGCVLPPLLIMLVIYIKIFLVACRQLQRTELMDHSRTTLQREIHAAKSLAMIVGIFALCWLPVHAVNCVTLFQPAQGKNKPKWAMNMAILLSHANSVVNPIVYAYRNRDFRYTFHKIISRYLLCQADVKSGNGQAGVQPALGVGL
Sequence of Lutropin-choriogonadotropic hormone receptor (Homo sapiens) (P22888 whole entry): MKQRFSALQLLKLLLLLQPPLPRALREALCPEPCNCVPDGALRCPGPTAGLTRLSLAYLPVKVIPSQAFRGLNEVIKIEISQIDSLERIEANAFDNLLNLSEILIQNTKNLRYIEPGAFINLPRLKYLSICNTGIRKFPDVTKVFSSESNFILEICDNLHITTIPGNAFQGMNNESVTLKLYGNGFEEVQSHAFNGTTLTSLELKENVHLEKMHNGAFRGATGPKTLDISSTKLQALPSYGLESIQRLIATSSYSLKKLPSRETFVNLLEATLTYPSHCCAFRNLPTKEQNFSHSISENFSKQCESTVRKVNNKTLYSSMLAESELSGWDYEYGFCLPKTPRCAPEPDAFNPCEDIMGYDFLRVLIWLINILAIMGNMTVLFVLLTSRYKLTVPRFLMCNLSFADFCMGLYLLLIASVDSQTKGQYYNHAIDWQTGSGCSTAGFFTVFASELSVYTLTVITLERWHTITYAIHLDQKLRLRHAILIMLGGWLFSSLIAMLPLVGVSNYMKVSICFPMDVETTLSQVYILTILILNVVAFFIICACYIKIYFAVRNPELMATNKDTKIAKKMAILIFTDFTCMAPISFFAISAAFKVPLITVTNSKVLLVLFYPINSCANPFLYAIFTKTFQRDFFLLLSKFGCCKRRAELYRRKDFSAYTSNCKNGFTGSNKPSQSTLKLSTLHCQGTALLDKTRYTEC
Sequence of Melanocyte-stimulating hormone receptor (Homo sapiens) (Q01726 whole entry, looked up): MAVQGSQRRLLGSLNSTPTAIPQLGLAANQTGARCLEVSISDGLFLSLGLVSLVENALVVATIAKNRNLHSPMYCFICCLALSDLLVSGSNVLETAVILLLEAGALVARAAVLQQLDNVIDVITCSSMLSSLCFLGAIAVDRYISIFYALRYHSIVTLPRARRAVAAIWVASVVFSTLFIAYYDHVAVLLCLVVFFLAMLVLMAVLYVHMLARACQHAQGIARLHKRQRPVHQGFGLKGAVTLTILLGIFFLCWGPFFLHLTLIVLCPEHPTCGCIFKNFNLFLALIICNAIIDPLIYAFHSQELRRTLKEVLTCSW
Sequence of Probable G-protein coupled receptor 162 (Homo sapiens) (Q16538 whole entry): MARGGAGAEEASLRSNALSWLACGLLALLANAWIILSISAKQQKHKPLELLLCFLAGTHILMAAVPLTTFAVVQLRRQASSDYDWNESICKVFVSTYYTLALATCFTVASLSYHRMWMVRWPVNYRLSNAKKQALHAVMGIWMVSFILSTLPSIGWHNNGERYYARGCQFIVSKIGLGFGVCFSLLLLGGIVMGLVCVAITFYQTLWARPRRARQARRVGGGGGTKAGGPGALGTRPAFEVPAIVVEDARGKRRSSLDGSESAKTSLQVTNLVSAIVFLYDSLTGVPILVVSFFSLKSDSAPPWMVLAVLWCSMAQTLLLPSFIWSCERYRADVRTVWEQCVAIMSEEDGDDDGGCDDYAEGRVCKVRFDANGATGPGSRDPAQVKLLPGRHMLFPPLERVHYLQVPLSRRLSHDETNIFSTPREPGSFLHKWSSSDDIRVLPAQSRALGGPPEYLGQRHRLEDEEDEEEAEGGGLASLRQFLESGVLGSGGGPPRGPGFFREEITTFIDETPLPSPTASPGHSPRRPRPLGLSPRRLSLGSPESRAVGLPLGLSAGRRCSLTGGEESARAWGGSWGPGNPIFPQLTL
Sequence of Melanocortin receptor 4 (Homo sapiens) (P32245 whole entry): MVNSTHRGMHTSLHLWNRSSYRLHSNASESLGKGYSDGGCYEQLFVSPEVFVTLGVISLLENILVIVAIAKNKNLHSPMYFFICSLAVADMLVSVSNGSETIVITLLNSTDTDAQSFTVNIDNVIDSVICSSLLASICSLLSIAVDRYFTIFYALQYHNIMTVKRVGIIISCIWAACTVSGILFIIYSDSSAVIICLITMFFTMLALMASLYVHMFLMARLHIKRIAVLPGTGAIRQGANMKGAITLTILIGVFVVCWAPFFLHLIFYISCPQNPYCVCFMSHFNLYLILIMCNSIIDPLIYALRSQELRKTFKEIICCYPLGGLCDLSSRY
Sequence of Chemerin-like receptor 2 (Homo sapiens) (P46091 whole entry): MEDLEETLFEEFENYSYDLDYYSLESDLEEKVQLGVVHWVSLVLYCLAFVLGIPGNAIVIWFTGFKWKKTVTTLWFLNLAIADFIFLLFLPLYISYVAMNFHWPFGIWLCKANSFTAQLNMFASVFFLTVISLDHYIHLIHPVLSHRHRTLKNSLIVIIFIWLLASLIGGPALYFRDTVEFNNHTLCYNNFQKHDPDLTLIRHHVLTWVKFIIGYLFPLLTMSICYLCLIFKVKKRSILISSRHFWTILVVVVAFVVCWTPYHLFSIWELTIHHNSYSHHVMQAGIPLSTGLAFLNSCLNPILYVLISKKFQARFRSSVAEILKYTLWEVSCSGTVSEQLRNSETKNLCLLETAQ
Sequence of Glucagon receptor (Homo sapiens) (P47871 whole entry): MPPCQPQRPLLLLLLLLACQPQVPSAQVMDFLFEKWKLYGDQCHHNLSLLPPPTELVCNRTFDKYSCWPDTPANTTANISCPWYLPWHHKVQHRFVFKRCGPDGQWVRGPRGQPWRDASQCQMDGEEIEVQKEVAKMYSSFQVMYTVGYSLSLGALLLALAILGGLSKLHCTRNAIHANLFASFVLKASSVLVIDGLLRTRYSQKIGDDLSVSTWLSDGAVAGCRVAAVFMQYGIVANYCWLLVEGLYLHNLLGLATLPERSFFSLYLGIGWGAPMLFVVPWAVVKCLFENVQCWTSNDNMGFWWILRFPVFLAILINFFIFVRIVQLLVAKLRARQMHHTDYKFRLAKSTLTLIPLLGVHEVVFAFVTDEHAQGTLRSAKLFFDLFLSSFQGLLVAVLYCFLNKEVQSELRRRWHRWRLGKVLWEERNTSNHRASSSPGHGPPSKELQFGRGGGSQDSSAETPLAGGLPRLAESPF
Sequence of Substance-P receptor (Homo sapiens) (P25103 whole entry): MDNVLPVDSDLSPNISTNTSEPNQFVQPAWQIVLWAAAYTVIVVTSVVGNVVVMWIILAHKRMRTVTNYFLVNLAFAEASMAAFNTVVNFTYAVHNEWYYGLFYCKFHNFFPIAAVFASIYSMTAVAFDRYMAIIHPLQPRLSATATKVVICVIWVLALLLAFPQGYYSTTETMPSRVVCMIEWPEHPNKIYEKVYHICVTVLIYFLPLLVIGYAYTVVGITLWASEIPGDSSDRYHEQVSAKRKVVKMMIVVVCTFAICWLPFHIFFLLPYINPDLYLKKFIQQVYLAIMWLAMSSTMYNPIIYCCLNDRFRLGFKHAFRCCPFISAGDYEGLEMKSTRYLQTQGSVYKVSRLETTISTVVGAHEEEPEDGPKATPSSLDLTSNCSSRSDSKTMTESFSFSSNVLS

CCCCC(=O)N1CC2(C1)CN(c1ccccc1-c1nnn[nH]1)C2 was tested, and the RLU [1] was 1.07e+06, the RLU [2] was -4210 and the RLU [3] was 82.9. For the same molecule, the RLU [4] was -194, the EC50 [5] was > 50 µM (not active) and the RLU [6] was -1890. It also gave an RLU [7] of 3270, an RLU [8] of -2640 and an RLU [9] of 154. It also gave an RLU [10] of 1330, an RLU [11] of 892 and an RLU [12] of -4720. It also gave an RLU [13] of 6270, an RLU [14] of -60.1 and an RLU [15] of 5.41. For the same molecule, the RLU [16] was -637, the RLU [17] was 466 and the RLU [18] was -970. For the same molecule, the RLU [19] was -2110, the RLU [20] was 4170 and the RLU [21] was 613. It also gave an RLU [22] of 8350, an RLU [23] of -1210 and an RLU [24] of 2760. It also gave an RLU [25] of 3970, an RLU [26] of 550 and an RLU [27] of 8730. It also gave an RLU [28] of 10100, an RLU [29] of -102 and an RLU [30] of 3570. It also gave an RLU [31] of -1360, an RLU [32] of 6490 and an RLU [33] of 761. The RLU [34] was 963 and the RLU [35] was -1060.
